What all share (test): relative viability (nuclei count vs DMSO), 5 days (fraction); higher = more cells survive
Compound in experiment [1]: CC1=CC(=CC=C1)NC2=NC(=CS2)C3=CC=NC=C3 + CC(C)C[C@H](NC(=O)[C@H](Cc1ccccc1)NC(=O)c1cnccn1)B(O)O [Bortezomib] (partner 0.002 µM)
In a few lines: (§1)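 One day after seeding in 1536-well plates, lung cancer cell lines were dosed by pin tool. Dosing was either single-drug or a fixed anchor-drug dose plus five library-drug doses (not always all listed) in √10 steps. After 5 days, nuclei were stained in one fix-and-stain step and counted on 4× images, and relative viability is the nuclei count of treated wells over that of vehicle wells, given as the median of duplicate plates.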

Compound in the experiment “Masitinib + Bortezomib”: Cc1ccc(NC(=O)c2ccc(CN3CCN(C)CC3)cc2)cc1Nc1nc(-c2cccnc2)cs1 [Masitinib] + CC(C)C[C@H](NC(=O)[C@H](Cc1ccccc1)NC(=O)c1cnccn1)B(O)O [Bortezomib] (partner 0.002 µM)
A digest of the protocol: as §1

Compound in experiment [2]: CC1=CC(=CC=C1)NC2=NC(=CS2)C3=CC=NC=C3 + C[C@@H](Oc1cc(-c2cnn(C3CCNCC3)c2)cnc1N)c1c(Cl)ccc(F)c1Cl [Crizotinib] (partner 1 µM)
In a few lines:
as §1

Compound in the experiment “Masitinib + AZD7762”: Cc1ccc(NC(=O)c2ccc(CN3CCN(C)CC3)cc2)cc1Nc1nc(-c2cccnc2)cs1 [Masitinib] + NC(=O)Nc1cc(-c2cccc(F)c2)sc1C(=O)N[C@H]1CCCNC1 [AZD7762] (partner 0.2 µM)
In a few lines:
as §1

PC-14: the relative viability in experiment [1] (first compound 0.08 µM) was found to be 0.966; in experiment [1] (first compound 0.253 µM), 0.899; in experiment [1] (first compound 0.8 µM), 0.685; in experiment [1] (first compound 2.53 µM), 0.909; in experiment [1] (first compound 8 µM), 0.499; with Masitinib + Bortezomib (first compound 0.01 µM), 0.786. Also, the relative viability with Masitinib + Bortezomib (first compound 0.03162 µM) came to 0.878; with Masitinib + Bortezomib (first compound 0.1 µM), 0.857; with Masitinib + Bortezomib (first compound 0.3162 µM) it was 0.84; with Masitinib + Bortezomib (first compound 1 µM) it was 0.846; in experiment [2] (first compound 0.08 µM), 0.87; in experiment [2] (first compound 0.253 µM) it was 0.881. Also, the relative viability was found to be 0.821 in experiment [2] (first compound 0.8 µM); 0.951 in experiment [2] (first compound 2.53 µM); 0.695 in experiment [2] (first compound 8 µM); 0.349 with Masitinib + AZD7762 (first compound 0.01 µM); 0.242 with Masitinib + AZD7762 (first compound 0.03162 µM); 0.384 with Masitinib + AZD7762 (first compound 0.1 µM). The figures for the relative viability in the experiment with Masitinib + AZD7762 (first compound 0.3162 µM) and in the experiment with Masitinib + AZD7762 (first compound 1 µM) were 0.366 and 0.235, respectively.

For the cell line CAL-12T, the relative viability in experiment [1] (first compound 0.08 µM) was 0.757; in experiment [1] (first compound 0.8 µM) it was 1.01; in experiment [1] (first compound 2.53 µM), 0.719; in experiment [1] (first compound 8 µM) it was 0.954; in the experiment with Masitinib + Bortezomib (first compound 0.01 µM), 0.852; with Masitinib + Bortezomib (first compound 0.03162 µM) it was 1.05. The relative viability was found to be 1.06 with Masitinib + Bortezomib (first compound 0.1 µM); 1.07 in the experiment with Masitinib + Bortezomib (first compound 0.3162 µM); 0.713 in the experiment with Masitinib + Bortezomib (first compound 1 µM); 0.547 in experiment [2] (first compound 0.08 µM); 0.634 in experiment [2] (first compound 0.253 µM); 0.612 in experiment [2] (first compound 0.8 µM). Further, the relative viability in experiment [2] (first compound 2.53 µM) amounted to 0.62; in experiment [2] (first compound 8 µM), 0.604; with Masitinib + AZD7762 (first compound 0.01 µM) it was 0.586; with Masitinib + AZD7762 (first compound 0.03162 µM), 0.639; with Masitinib + AZD7762 (first compound 0.1 µM) it was 0.606; in the experiment with Masitinib + AZD7762 (first compound 0.3162 µM), 0.605. Also, in the experiment with Masitinib + AZD7762 (first compound 1 µM), the relative viability turned out to be 0.498.

Source of the values: the supplement of paper PMC10307832.
